Results: patent US9795131B2, “Sophorolactone compositions and uses thereof” (ECOVER CO-ORDINATION CENTER N.V., priority 2011, dated 2017)
Several values for one entry are separate records, joined by “and”; a condition that tells them apart may be missing. Equal entries are not always repeated.

Key:
[1] = Capacity of solvents to dissolve sophorolactone; type: physicochemical; conditions: percent sophorolactone dissolved by the solvent at room temperature
[2] = OK / NOK; cited from earlier work
[3] = Contact angle of isoamyl lactate / partial sophorolipid hydrolysate mixtures; type: physicochemical; conditions: room temperature, sessile drop; FIG. 4
Description: The contact angle of combinations of isoamyl lactate (Galactic) with partial sophorolipid hydrolysate (0.7 mol equivalent) on white PVC-strips (Leneta) was measured at room temperature with a Krüss DSA100 tensiometer using the sessile drop method. Each component of the mixtures is at maximum 1% active matter. Results are evaluated with the software Statistica.

Solubility in water = type: physicochemical
Film forming properties = type: physicochemical
Excerpt: This experiment was repeated with pieces of leek with the same outcome. […] The latter destructive detection method necessitated several PVC strips to be used, each strip lasting an extra rinse cycle before detection.

[4] = Contact angle of deionized water on treated substrate, without or with rinses; type: physicochemical; conditions: 1% active; for Contact angle Rinse 1: after rinse 1; for Contact angle Rinse 1 / Contact angle Rinse 2 / Contact angle Rinse 3 / Contact Angle: in ° (unit assumed); for Contact angle Rinse 2: after rinse 2; for Contact angle Rinse 3: after rinse 3; for Contact Angle: before rinsing, NM = not measurable due to an extremely low contact angle
Description: A test composition was made by dissolving 10% sophorolactone in ethanol. […] Different substrates are wetted with said 1% lactone dispersion and dried in a climate chamber at 40° C. Substrates used were glass, polyvinylchloride (PVC) and leek leaves.
(§1) Several contact angle measurements were performed on each substrate.
(§2) The results obtained were for solutions wherein lactone was replaced by sodium lauryl sulphate (SPS), APG600 (a C10-C16 alkylpolyglucoside), wild type or crude sophorolipid (as obtained after fermentation, denominated as WT in Table 2), FAEO/PO nonionic (CAS 68439-51-0, C12-14 fatty alcohol, 5 mole EO, 4 mol EO), modified FAEO/PO (C8/10 fatty alcohol+1 PO+22 EO (2-hydroxydecyl)-ether) and siloxane polyether copolymer (Silwet Hydrostable 68).
This experiment was repeated with different substrates and different 1% active surfactant solutions as elaborated in Table 2.

dust mite proteins = assay: Denaturation of dust mite proteins; type: biochemical
Antifogging test = type: physicochemical; conditions: mirror treated with 10% solution in water of 10% sophorolactone in ethanol, dried
Description: The other half of the mirror was treated with a 10% solution of ethanol.

[5] = Allergic reaction to house dust mite excrements
Propionibacterium acnes = assay: Effectiveness against acne bacterium; type: cell-based
[6] = Contact angle of deionized water on treated substrate, without or with rinses; type: physicochemical; conditions: for Contact angle Rinse 1 / Contact angle Rinse 2 / Contact angle Rinse 3 / Contact angle Rinse 4 / Contact angle Rinse 5 / Contact Angle: PVC, in ° (unit assumed); for Contact angle Rinse 1: after rinse 1; for Contact angle Rinse 2: after rinse 2; for Contact angle Rinse 3: after rinse 3; for Contact angle Rinse 4: after rinse 4; for Contact angle Rinse 5: after rinse 5; for Contact Angle: before rinsing, NM = not measurable due to an extremely low contact angle
Description: A test composition was made by dissolving 10% sophorolactone in ethanol. […] […] Substrates used were glass, polyvinylchloride (PVC) and leek leaves.
as §1
as §2, with “68). […]” for “68).”

[7] = Sensitivity to hard water; type: physicochemical

With CCO [Ethanol] as the compound, how does the “% lactone dissolved” value [1] read?
Its value is 7.5%.

For C=C(C)[C@H]1CC=C(C)CC1 [D-limonene], which “% lactone dissolved” value [1] is on record?
Its value is 8.5%.

With CC(C)O [Isopropanol] as the compound, how does the “% lactone dissolved” value [1] read?
The value was 2.2%.

With CC(O)CO (stereo not drawn) [Propylene glycol] as the compound, how does the “% lactone dissolved” value [1] read?
The value was 9.05%.

For CCOC(C)=O [Ethylacetate], which “% lactone dissolved” value [1] is on record?
The value was 3.96%.

Which “% lactone dissolved” value [1] does the source give for O=C1OCC(CO)O1 (stereo not drawn) [Glycerincarbonate] here?
Its value is under 1%.

Which GRAS status [2] does the source give for OCCOc1ccccc1 [Phenoxyethanol] here?
Its GRAS status is “NOK”.

For OCC(O)CO [Glycerol], which “% lactone dissolved” value [1] is on record?
The value was under 1%.

For OCCCc1ccccc1 [Hydrocinnamylalcohol], which “% lactone dissolved” value [1] is on record?
The value was 32.5%.

For COC(C)COC(C)CO (stereo not drawn) [DPM, dipropyleneglycol methyl ether], which GRAS status [2] is on record?
The GRAS status was “NOK”.

And the “% lactone dissolved” value [1]?
Its value is 28.93%.

For CCCCCCO [Hexanol], which “% lactone dissolved” value [1] is on record?
Its value is 2.65%.

Which “% lactone dissolved” value [1] does the source give for CCCCOC(=O)C(C)O (stereo not drawn) [Butyl lactate] here?
Its value is 20%.

Which “% lactone dissolved” value [1] does the source give for OCCc1ccccc1 [Phenetyl alcohol] here?
The value was 22%.

With OCc1ccccc1 [Benzylalcohol] as the compound, how does the “% lactone dissolved” value [1] read?
The value was 67.35%.

Which “concentration at maximal PVC wetting” value [3] does the source give for CC(C)CCOC(=O)C(C)O (stereo not drawn) [Isoamyl lactate] here?
The value was about 1.2%.

And the solubility in water (Solubility in water)?
The solubility in water was at most 1%.

What about the GRAS status [2] of the same compound?
Its GRAS status is “NOK”.

And the “% lactone dissolved” value [1]?
Its value is 21.2%.

For CCCCCCC(O)CO (stereo not drawn) [Caprylyl Glycol], which “% lactone dissolved” value [1] is on record?
Its value is 8.65%.

For CCCOCC(C)O (stereo not drawn) [PNP, 1-propoxy 2-propanol], which “% lactone dissolved” value [1] is on record?
Its value is 15.57%.

For Cc1ccc(C(C)C)c(O)c1 [Thymol, thymol, reference compound], which “retention of active on PVC substrate” value (Film forming properties; 1% dispersion of 10% lactone, 10% thymol, 80% ethanol solution, smell and sulfuric acid colour) is on record?
The value was “remained fixed on the PVC substrate for several rinses”.

For CO[C@H]1CO[C@H]2[C@@H]1OC[C@H]2OC [Dimethyl isosorbide], which GRAS status [2] is on record?
The GRAS status was “NOK”.

And the “% lactone dissolved” value [1]?
Its value is 31.89%.

For CC1(C)OCC(CO)O1 (stereo not drawn) [2-3-o-isopropyliden glycerin, (2,2-dimethyl-[1,3]dioxolan-4-yl)-methanol], which GRAS status [2] is on record?
Its GRAS status is “NOK”.

For Glycerin formal, which “% lactone dissolved” value [1] is on record?
Its value is 35%.

With OCCCO [1.3 propanediol] as the compound, how does the “% lactone dissolved” value [1] read?
The value was 2.75%.

Which “% lactone dissolved” value [1] does the source give for CC(=O)O [Glacial acetic] here?
Its value is 23.65%.

With CCCCOCC(C)O (stereo not drawn) [PNB Henkel] as the compound, how does the “% lactone dissolved” value [1] read?
Its value is 6.73%.

With sophorolactone as the compound, how does the “Contact angle Rinse 1” value ([4]; glass) read?
The value was 15.3 and 10 and 12.

And the “Contact angle Rinse 2” value ([4]; glass)?
Its value is 24.4 and 30 and 25.

What about the “Contact angle Rinse 3” value ([4]; glass) of the same compound?
Its value is 23.5 and 27.8 and 25.

What about the “Contact Angle” value ([4]; glass) of the same compound?
Its value is 14.2 and 14.1 and 11.3 and 10.

And the “Contact angle Rinse 1” value ([4]; leek)?
Its value is 25 and 26 and 28.

What about the “Contact Angle” value ([4]; leek) of the same compound?
Its value is 28 and 27 and 25.

And the phytotoxicity (Phytotoxicity)?
The phytotoxicity was “not phytotoxic”.

And the “denaturation of dust mite proteins” value (dust mite proteins)?
Its value is “denatures dust mite proteins”.

And the “condensation or fogging above boiling water” value (Antifogging test)?
Its value is “not visually covered with condensation water and retained its mirror properties”.

And the “allergic reaction to excrements of house dust mites” value [5]?
Its value is “effectively reduces the allergic reaction”.

What about the “effectiveness against Propionibacterium acnes” value (Propionibacterium acnes) of the same compound?
Its value is “effective”.

What about the “contact angles and rinse resistance” value ([6]; 1% lactone dispersion made using hard water) of the same compound?
Its value is “equally low contact angles and excellent rinse resistance”.

What about the “Contact angle Rinse 1” value ([6]; 0.1% Lactone) of the same compound?
Its value is 66 and 67 and 79.

What about the “Contact angle Rinse 2” value ([6]; 0.1% Lactone) of the same compound?
Its value is 90 and 80.

And the “Contact angle Rinse 1” value ([6]; 1% active in hard water (200 ppm CaCO3))?
Its value is 19 and 20 and 21.

And the “Contact angle Rinse 2” value ([6]; 1% active in hard water)?
Its value is 14 and 15.

What about the “Contact angle Rinse 3” value ([6]; 1% active in hard water) of the same compound?
The value was 12 and 17 and 14.

What about the “Contact angle Rinse 4” value ([6]; 1% active in hard water) of the same compound?
Its value is 11 and 12.

What about the “Contact angle Rinse 5” value ([6]; 1% active in hard water) of the same compound?
Its value is 12 and 11 and 10.

And the “Contact angle Rinse 2” value ([6]; 1% active)?
Its value is 0.

And the “Contact angle Rinse 2” value ([6]; 1% active, listed as lactone)?
Its value is 8.4 and 16.

And the “Contact Angle” value ([6]; 1% active)?
The value was 7 and 10.

What about the “wetting by water after rinses” value ([6]; hydrophobic surface such as PVC and leek) of the same compound?
The value was “excellent wetting by water even after 5 rinses”.

What about the “sensitivity to hard water” value [7] of the same compound?
Its value is “insensitive to hard water”.

What about the stability of dispersion (Film forming properties; 1% sophorolactone dispersion in water made from 10% solution in ethanol) of the same compound?
Its stability of dispersion is “remained stable overnight at room temperature without visual separation”.

And the “removability of dried layer by water” value (Film forming properties; 10% sophorolactone in benzyl alcohol applied to a PVC sheet, air dried)?
The value was “virtually impossible to remove with running tap water or with repeated rinsing with water”.

What about the “repeated rinse and dry cycles withstood by layer” value (Film forming properties; PVC sheet, 1% sophorolactone dispersion, air dried) of the same compound?
Its value is “at least 5 cycles”.

With CCCCCCCCCCCCOS(=O)(=O)[O-].[Na+] [SLS, sodium lauryl sulphate, reference compound] as the compound, how does the “Contact angle Rinse 2” value ([4]; glass, sulphate) read?
Its value is 33.2 and 64.2 and 33.8.

And the “Contact angle Rinse 3” value ([4]; glass, sulphate)?
The value was 37.3 and 40.3 and 51.8.

What about the “Contact angle Rinse 4” value ([4]; glass, after rinse 4, sulphate) of the same compound?
Its value is 50.8 and 36.2.

What about the “Contact angle Rinse 5” value ([4]; glass, after rinse 5, sulphate) of the same compound?
Its value is 34 and 38 and 30.

What about the “Contact angle Rinse 1” value ([6]; 1% active, sulphate) of the same compound?
Its value is 72 and 100 and 96.

And the “Contact angle Rinse 2” value ([6]; 1% active, sulphate)?
The value was 102 and 94 and 90.

What about the “Contact angle Rinse 3” value ([6]; 1% active, sulphate) of the same compound?
The value was 64 and 65.

And the “Contact angle Rinse 4” value ([6]; 1% active, sulphate)?
Its value is 75 and 84 and 102.

What about the “Contact angle Rinse 5” value ([6]; 1% active, sulphate) of the same compound?
The value was 100 and 99 and 101.

And the “Contact Angle” value ([6]; 1% active)?
Its value is 1.
